Experimental findings from ChEMBL document CHEMBL3046119, “QSAR evaluation of cyanohydrins' fumigation toxicity to house fly (Musca domestica) and lesser grain borer (Rhyzopertha dominica)” (2002) are described below.

One assay relates to Rhyzopertha dominica. Briefly: Insecticidal activity against Rhyzopertha dominica after 24 hr. It is filed as functional.
A further assay concerns Musca domestica. As to the kind of experiment: Insecticidal activity against Musca domestica (house fly) after 24 hr. The assay is classed as functional.

Consider `C=CC(C#N)OC` (stereo unspecified), for which the LC50 came out at 9.06 µM in the assay with Rhyzopertha dominica and 4.22 µM in the assay on Musca domestica.

For `C=CC(O)C#N` (stereo unspecified), the results for the LC50 in the assay on Rhyzopertha dominica and in the assay with Musca domestica were 4.45 µM and 0.67 µM, respectively.

On to `CC(O)(C#N)CF` (stereo unspecified), for which the results for the LC50 in the assay with Rhyzopertha dominica and with Musca domestica were 3.2 µM and 0.87 µM, respectively.

With `C=CC(C#N)OC(C)=O` (stereo unspecified) [1-CYANOALLYL ACETATE], the results for the LC50 in the assay with Rhyzopertha dominica and in the assay with Musca domestica were 2.96 µM and 2.08 µM, respectively.

Take `C=CC(C#N)OC(=O)C(C)(C)C` (stereo unspecified) [1-CYANOALLYL PIVALATE]: the LC50 with Rhyzopertha dominica came out at 14.4 µM; in the assay on Musca domestica, 8.19 µM.

Consider `C=CC(C#N)OC(=O)CC` (stereo unspecified) [1-CYANOALLYL PROPIONATE], for which the results for the LC50 in the assay with Rhyzopertha dominica and in the assay on Musca domestica were 5.03 µM and 4.74 µM, respectively.

On to `N#CC(O)C1CC1` (stereo unspecified) [CYCLOPROPYLCARBOXALDEHYDE], for which the LC50 was 4.12 µM in the assay with Rhyzopertha dominica and 1.54 µM with Musca domestica.

With `CC(O)(C#N)C1CC1` (stereo unspecified) [CYCLOPROPYLMETHYLKETONE CYANOHYDRIN], the values for the 50% lethal concentration (LC50) in the assay on Rhyzopertha dominica and in the assay on Musca domestica were 3.6 µM and 1.35 µM, respectively.

`CC=C(Cl)Cl` [DICHLOROPROPENE]: the values for the LC50 with Rhyzopertha dominica and with Musca domestica were 49.3 µM and 8.11 µM, respectively.

For the compound `COP(=O)(OC)OC=C(Cl)Cl` [DICHLORVOS], the LC50 with Rhyzopertha dominica was found to be 1.31 µM; in the assay with Musca domestica, 0.05 µM.

For `CC(C)(O)C#N` [DIMETHYLKETONE CYANOHYDRIN], the results for the LC50 in the assay with Rhyzopertha dominica and in the assay with Musca domestica were 4.7 µM and 0.82 µM, respectively.

Take `CCC(C)(O)C#N` (stereo unspecified) [METHYLETHYL KETONE CYANOHYDRIN]: the LC50 in the assay with Rhyzopertha dominica amounted to 4.14 µM; in the assay on Musca domestica, 0.91 µM.

For the compound `C=CC(C)(O)C#N` (stereo unspecified) [METHYLVINYL KETONE CYANOHYDRIN], the LC50 with Rhyzopertha dominica turned out to be 9.47 µM; in the assay with Musca domestica, 2.27 µM.
